Measurements: patent US4978761A, “5-hydroxy-2-substituted-2,4,6,7-tetramethyl-2,3-dihydrobenzofurans” (Takeda Chemical Industries, Ltd., priority 1988, dated 1990)

Key:
12-Lipoxygenase = target: T1, 12-Lipoxygenase (Rattus norvegicus, UniProt F1LQ70); experiment: 12-Lipoxygenase inhibitory action: 12-HETE production in Wistar rat platelets (HPLC); format: cell-based; details: read-out: 12-Lipoxygenase Inhibitory Action, % Inhibition (IE); for inhibition at 100 µM: 10^-4 M; for inhibition at 10 µM: 10^-5 M; for inhibition at 1 µM: 10^-6 M; for inhibition at 0.1 µM: 10^-7 M
T1 construct: from tissue; host or cells: Wistar rat platelets (PRP mixed with PPP, from citrated aortic blood)
T1 sequence (F1LQ70 1-663): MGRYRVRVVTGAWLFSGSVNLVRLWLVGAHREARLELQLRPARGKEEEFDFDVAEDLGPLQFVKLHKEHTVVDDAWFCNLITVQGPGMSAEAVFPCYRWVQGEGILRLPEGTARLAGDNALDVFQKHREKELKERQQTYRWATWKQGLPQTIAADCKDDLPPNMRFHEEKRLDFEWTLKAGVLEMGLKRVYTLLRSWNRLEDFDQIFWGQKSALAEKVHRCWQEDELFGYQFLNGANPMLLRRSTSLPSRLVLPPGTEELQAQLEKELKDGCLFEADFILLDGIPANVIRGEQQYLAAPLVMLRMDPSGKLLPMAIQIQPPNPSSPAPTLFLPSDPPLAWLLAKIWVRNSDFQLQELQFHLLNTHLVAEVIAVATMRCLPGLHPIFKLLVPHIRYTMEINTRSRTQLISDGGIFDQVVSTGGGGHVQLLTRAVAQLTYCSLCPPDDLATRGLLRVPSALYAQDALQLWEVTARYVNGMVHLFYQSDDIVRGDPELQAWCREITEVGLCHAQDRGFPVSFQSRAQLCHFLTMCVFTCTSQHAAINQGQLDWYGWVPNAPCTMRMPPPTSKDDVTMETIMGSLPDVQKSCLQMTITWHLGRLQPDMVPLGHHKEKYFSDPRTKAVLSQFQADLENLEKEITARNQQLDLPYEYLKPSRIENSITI
Procedure: Through the descending aorta of a Wistar rat, 10 ml of blood was collected, under anesthesia, together with citric acid of a volume corresponding to 10%. PRP and PPP were respectively prepared, then they were mixed to make the number of platelets to be 10^9 /ml. To 2.5 μl each of the test solutions prepared in advance (final concentrations of the test compounds : 100 μm, 10 μm, 1 μm and 0.1 μm) was added 0.225 ml of the platelet solution. The respective solutions were kept at 37° C. for 5 minutes, to which was added 25 μl each of arachidonic acid solution (50 μg/ml) , then the respective mixtures were shaken immediately. The reaction was allowed to proceed at 37° C. for 15 minutes, and there was added ethanol (1 ml) to stop the reaction. The reaction mixture was subjected to a centrifuge (2000 rpm) for 5 minutes. One ml of the supernatant was taken, which was mixed with 1 ml of water. 100 μl of this mixture solution was subjected to high performance liquid chromatography to quantitatively determine 12-HETE. The detection was conducted at 240 nm. The calculation of the inhibition rate was conducted in a manner as in the case of 5-HETE.

5-Lipoxygenase = target: T2, 5-Lipoxygenase (Rattus norvegicus, UniProt P12527); experiment: 5-Lipoxygenase inhibiting action: 5-HETE production in rat basophilic leukemia (RBL-1) cells (HPLC); format: cell-based; details: read-out: Effect of Inhibiting 5-Lipoxygenase, % Inhibition (IE); for inhibition at 10 µM: 10^-5 M; for inhibition at 1 µM: 10^-6 M; for inhibition at 0.1 µM: 10^-7 M; for inhibition at 0.01 µM: 10^-8 M
T2 construct: endogenous in cells; host or cells: RBL-1 (rat basophilic leukemia) cells
T2 sequence (P12527 1-673): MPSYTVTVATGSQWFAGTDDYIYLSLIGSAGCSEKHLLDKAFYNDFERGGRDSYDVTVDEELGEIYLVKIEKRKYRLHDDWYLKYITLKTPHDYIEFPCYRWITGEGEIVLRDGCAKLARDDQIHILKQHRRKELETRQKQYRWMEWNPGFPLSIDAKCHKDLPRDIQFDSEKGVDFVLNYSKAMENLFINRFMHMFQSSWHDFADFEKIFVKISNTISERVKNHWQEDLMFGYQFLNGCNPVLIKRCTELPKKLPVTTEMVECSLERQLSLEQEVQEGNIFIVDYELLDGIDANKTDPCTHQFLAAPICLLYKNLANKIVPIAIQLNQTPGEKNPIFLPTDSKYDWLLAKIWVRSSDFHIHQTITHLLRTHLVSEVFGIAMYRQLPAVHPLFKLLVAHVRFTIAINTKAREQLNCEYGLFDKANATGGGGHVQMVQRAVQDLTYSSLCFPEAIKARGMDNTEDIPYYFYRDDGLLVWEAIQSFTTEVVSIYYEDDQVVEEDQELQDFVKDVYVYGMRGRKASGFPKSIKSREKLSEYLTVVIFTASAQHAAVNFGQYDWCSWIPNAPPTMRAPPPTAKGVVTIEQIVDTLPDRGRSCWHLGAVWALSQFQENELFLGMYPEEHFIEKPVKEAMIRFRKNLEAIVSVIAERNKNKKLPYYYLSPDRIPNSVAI
Procedure: In 0.5 ml of MCM (mast cell medium) was suspended 10^7 of rat basophilic leukemia (RBL-1) cells. To this suspension was added the test solution previously prepared [consisting of 0.5 ml of MCM, 50 μg of arachidonic acid, 10 μg of calcium ionophore A-23187 and the test compound (final concentrations 10 μm, 1 μm, 0.1 μm and 0.01 μm)], and the reaction was allowed to proceed at 37° C. for 20 minutes. To the reaction mixture was added 4 ml of ethanol, which was shaken sufficiently, followed by leaving the resultant mixture standing for 10 minutes at room temperatures. The resultant mixture was subjected to a centrifuge (2000 rpm) for 10 minutes, then the supernatant was separated. Thus-separated supernatant was concentrated to dryness under reduced pressure. To the concentrate was added 0.5 ml of a 60% aqueous methanol. A 100μl Portion of this solution was taken and subjected to high performance liquid chromatography to perform quantitative determination of 5-HETE (5-hydroxyeicosatetraenoic acid). UV absorption of 5-HETE at 237 nm was measured with a UV absorption monitor. The inhibitory effect (IE) of 5-HETE is expressed by (1-b/a)×100. In this formula, a means the height of the peak or the area of the peak in the case of presence of no compound (I), while b means the height of the peak or the area of the peak in the case of presence of the compound (I).

Cc1ccc(CCC2(C)Cc3c(C)c(O)c(C)c(C)c3O2)cc1 (stereo not drawn) [Compound 35]
inhibition at 100 µM (12-Lipoxygenase): 99%
inhibition at 10 µM (12-Lipoxygenase): 99%
inhibition at 1 µM (12-Lipoxygenase): 49%
inhibition at 0.1 µM (12-Lipoxygenase): 8%

CCCCCCCCCC1(C)Cc2c(C)c(O)c(C)c(C)c2O1 (stereo not drawn) [Compound 39]
inhibition at 100 µM (12-Lipoxygenase): 100%
inhibition at 10 µM (12-Lipoxygenase): 100%
inhibition at 1 µM (12-Lipoxygenase): 32%

CCCCCC1(C)Cc2c(C)c(O)c(C)c(C)c2O1 (stereo not drawn) [Compound 37]
inhibition at 100 µM (12-Lipoxygenase): 100%
inhibition at 10 µM (12-Lipoxygenase): 100%
inhibition at 1 µM (12-Lipoxygenase): 31%
inhibition at 0.1 µM (12-Lipoxygenase): 2%

COc1ccc(CCC2(C)Cc3c(C)c(O)c(C)c(C)c3O2)cc1 (stereo not drawn) [Compound 26]
inhibition at 100 µM (12-Lipoxygenase): 100%
inhibition at 10 µM (12-Lipoxygenase): 99%
inhibition at 1 µM (12-Lipoxygenase): 28%

Cc1c(C)c2c(c(C)c1O)CC(C)(/C=C\CCc1ccccc1)O2 (stereo not drawn) [Compound 21]
inhibition at 100 µM (12-Lipoxygenase): 100%
inhibition at 10 µM (12-Lipoxygenase): 100%
inhibition at 1 µM (12-Lipoxygenase): 98%
inhibition at 0.1 µM (12-Lipoxygenase): 21%

CCC/C=C\C1(C)Cc2c(C)c(O)c(C)c(C)c2O1 (stereo not drawn) [Compound 36]
inhibition at 100 µM (12-Lipoxygenase): 100%
inhibition at 10 µM (12-Lipoxygenase): 100%
inhibition at 1 µM (12-Lipoxygenase): 100%
inhibition at 0.1 µM (12-Lipoxygenase): 97%

COc1cccc(CCC2(C)Cc3c(C)c(O)c(C)c(C)c3O2)c1 (stereo not drawn) [Compound 29]
inhibition at 100 µM (12-Lipoxygenase): 100%
inhibition at 10 µM (12-Lipoxygenase): 99%
inhibition at 1 µM (12-Lipoxygenase): 58%
inhibition at 0.1 µM (12-Lipoxygenase): 7%

Cc1c(C)c2c(c(C)c1O)CC(C)(CCCc1ccccc1)O2 (stereo not drawn) [Compound 20]
inhibition at 100 µM (12-Lipoxygenase): 100%
inhibition at 10 µM (12-Lipoxygenase): 99%
inhibition at 1 µM (12-Lipoxygenase): 97%
inhibition at 0.1 µM (12-Lipoxygenase): 9%

CCCCCCCCCCCCCC1(C)Cc2c(C)c(O)c(C)c(C)c2O1 (stereo not drawn) [Compound 41]
inhibition at 100 µM (12-Lipoxygenase): 99%
inhibition at 10 µM (12-Lipoxygenase): 74%
inhibition at 1 µM (12-Lipoxygenase): 20%
inhibition at 0.1 µM (12-Lipoxygenase): 9%

Cc1c(C)c2c(c(C)c1O)CC(C)(CCCCc1ccccc1)O2 (stereo not drawn) [Compound 23]
inhibition at 100 µM (12-Lipoxygenase): 100%
inhibition at 10 µM (12-Lipoxygenase): 100%
inhibition at 1 µM (12-Lipoxygenase): 92%
inhibition at 0.1 µM (12-Lipoxygenase): 19%

Cc1c(C)c2c(c(C)c1O)CC(C)(/C=C/Cc1ccccc1)O2 (stereo not drawn) [Compound 17]
inhibition at 100 µM (12-Lipoxygenase): 100%
inhibition at 10 µM (12-Lipoxygenase): 99%
inhibition at 1 µM (12-Lipoxygenase): 98%
inhibition at 0.1 µM (12-Lipoxygenase): 22%

Cc1c(C)c2c(c(C)c1O)CC(C)(/C=C\c1ccc(F)cc1)O2 (stereo not drawn) [Compound 30]
inhibition at 100 µM (12-Lipoxygenase): 100%
inhibition at 10 µM (12-Lipoxygenase): 100%
inhibition at 1 µM (12-Lipoxygenase): 98%
inhibition at 0.1 µM (12-Lipoxygenase): 21%

Cc1c(C)c2c(c(C)c1O)CC(C)(/C=C/c1ccccc1)O2 (stereo not drawn) [Compound 18]
inhibition at 100 µM (12-Lipoxygenase): 100%
inhibition at 10 µM (12-Lipoxygenase): 100%
inhibition at 1 µM (12-Lipoxygenase): 89%
inhibition at 0.1 µM (12-Lipoxygenase): 18%

COc1cccc(/C=C\C2(C)Cc3c(C)c(O)c(C)c(C)c3O2)c1 (stereo not drawn) [Compound 27]
inhibition at 100 µM (12-Lipoxygenase): 100%
inhibition at 10 µM (12-Lipoxygenase): 100%
inhibition at 1 µM (12-Lipoxygenase): 99%
inhibition at 0.1 µM (12-Lipoxygenase): 19%

Cc1c(C)c2c(c(C)c1O)CC(C)(CCc1ccccc1)O2 (stereo not drawn) [Compound 12]
inhibition at 10 µM (5-Lipoxygenase): 100%
inhibition at 1 µM (5-Lipoxygenase): 100%
inhibition at 0.1 µM (5-Lipoxygenase): 90%
inhibition at 0.01 µM (5-Lipoxygenase): 46%
inhibition at 100 µM (12-Lipoxygenase): 95%
inhibition at 10 µM (12-Lipoxygenase): 82%
inhibition at 1 µM (12-Lipoxygenase): 11%

Cc1c(C)c2c(c(C)c1O)CC(C)(CBr)O2 (stereo not drawn) [Compound 6]
inhibition at 10 µM (5-Lipoxygenase): 100%
inhibition at 1 µM (5-Lipoxygenase): 100%
inhibition at 0.1 µM (5-Lipoxygenase): 52%
inhibition at 0.01 µM (5-Lipoxygenase): 4%
inhibition at 100 µM (12-Lipoxygenase): 98%
inhibition at 10 µM (12-Lipoxygenase): 88%
inhibition at 1 µM (12-Lipoxygenase): 16%
inhibition at 0.1 µM (12-Lipoxygenase): 2%

COc1ccc(/C=C\C2(C)Cc3c(C)c(O)c(C)c(C)c3O2)cc1 (stereo not drawn) [Compound 24]
inhibition at 100 µM (12-Lipoxygenase): 100%
inhibition at 10 µM (12-Lipoxygenase): 99%
inhibition at 1 µM (12-Lipoxygenase): 98%
inhibition at 0.1 µM (12-Lipoxygenase): 13%

Cc1ccc(/C=C\C2(C)Cc3c(C)c(O)c(C)c(C)c3O2)cc1 (stereo not drawn) [Compound 33]
inhibition at 100 µM (12-Lipoxygenase): 100%
inhibition at 10 µM (12-Lipoxygenase): 100%
inhibition at 1 µM (12-Lipoxygenase): 28%
inhibition at 0.1 µM (12-Lipoxygenase): 2%

Cc1c(C)c2c(c(C)c1O)CC(C)(CC#N)O2 (stereo not drawn) [Compound 5, 5-hydroxy-2-cyanomethyl-2,4,6,7-tetramethyl-2,3-dihydrobenzofuran]
inhibition at 10 µM (5-Lipoxygenase): 100%
inhibition at 1 µM (5-Lipoxygenase): 100%
inhibition at 0.1 µM (5-Lipoxygenase): 57%
inhibition at 0.01 µM (5-Lipoxygenase): 0%
inhibition at 100 µM (12-Lipoxygenase): 97%
inhibition at 10 µM (12-Lipoxygenase): 78%
inhibition at 1 µM (12-Lipoxygenase): 14%

Cc1c(C)c2c(c(C)c1O)CC(C)(CCc1ccc(F)cc1)O2 (stereo not drawn) [Compound 32]
inhibition at 100 µM (12-Lipoxygenase): 99%
inhibition at 10 µM (12-Lipoxygenase): 99%
inhibition at 1 µM (12-Lipoxygenase): 45%
inhibition at 0.1 µM (12-Lipoxygenase): 2%

Cc1c(C)c2c(c(C)c1O)CC(C)(/C=C\Cc1ccccc1)O2 (stereo not drawn) [Compound 15]
inhibition at 100 µM (12-Lipoxygenase): 100%
inhibition at 10 µM (12-Lipoxygenase): 100%
inhibition at 1 µM (12-Lipoxygenase): 99%
inhibition at 0.1 µM (12-Lipoxygenase): 25%

CCCCCCCCCCC/C=C\C1(C)Cc2c(C)c(O)c(C)c(C)c2O1 (stereo not drawn) [Compound 40]
inhibition at 100 µM (12-Lipoxygenase): 99%
inhibition at 10 µM (12-Lipoxygenase): 96%
inhibition at 1 µM (12-Lipoxygenase): 48%
inhibition at 0.1 µM (12-Lipoxygenase): 6%

Cc1c(C)c2c(c(C)c1O)CC(C)(C=Cc1ccccc1)O2 (stereo not drawn) [Compound 10]
inhibition at 10 µM (5-Lipoxygenase): 100%
inhibition at 1 µM (5-Lipoxygenase): 99%
inhibition at 0.1 µM (5-Lipoxygenase): 98%
inhibition at 0.01 µM (5-Lipoxygenase): 12%
inhibition at 100 µM (12-Lipoxygenase): 96%
inhibition at 10 µM (12-Lipoxygenase): 92%
inhibition at 1 µM (12-Lipoxygenase): 52%
inhibition at 0.1 µM (12-Lipoxygenase): 45%

CCCCCCC/C=C\C1(C)Cc2c(C)c(O)c(C)c(C)c2O1 (stereo not drawn) [Compound 38]
inhibition at 100 µM (12-Lipoxygenase): 99%
inhibition at 10 µM (12-Lipoxygenase): 99%
inhibition at 1 µM (12-Lipoxygenase): 90%
inhibition at 0.1 µM (12-Lipoxygenase): 3%
